Values of other authors as cited in patent US5698219A, “Nanoemulsion of the oil water type, useful as an ophthalmic vehicle and process for the preparation thereof” (Laboratorios Cusi, S.A., priority 1994, dated 1997).

Settings: EP 0 521 799 A1; benzalkonium chloride at 0.02% (w/v)

Molecule | preservative effectiveness when used individually
C[CH2][Hg][S]c1ccccc1C(=O)[O-].[Na+] [thimerosal] | lack of effectiveness
benzalkonium chloride | lack of effectiveness
